{
  "source": "patent US9702824B2",
  "about": "“pH sensors” (PROMEGA CORPORATION, priority 2012, dated 2017)",
  "key": {"[1]": {"test": "Stability in DMSO by HPLC purity", "assay_type": "physicochemical", "details": "2 mM in DMSO; for HPLC Purity @ 532 nm, Ave: average of days 0-110; for HPLC Purity @ 532 nm: shielded from light", "experimental": "(§1) PBI-4479 was dissolved to 2 mM in DMSO to approximately 2.33 mg/mL. Aliquots of 350 uL from the 2 mM solution were stored shielded from light at −20° C., 4° C. and room temperature. Stability was established by measuring fluorescent emission intensity and by testing HPLC purity at time 0, 1 day, 1 week, 1 month, 4 months, and 6 months from when the solutions were prepared and stored. For the fluorescence measurements, each aliquot was diluted (1 uL) into 4 mL of 0.1M sodium phosphate pH 4.0 directly into a 4.5 mL plastic cuvette and mixed by inversion of the vial. The maximum emission peak at 562 nm was acquired using a HoribaJobinYvon fluorometer using an excitation of 532 nm with 1.5 nm slit width. For HPLC measurements, each aliquot was diluted to 1 mM in 0.1M sodium phosphate pH 4.0, and 2 uL tested. The purity of each aliquot was tested using an Agilent 1100 liquid chromatography system equipped with a quaternary pump and a diode-array detector. The diode-array detector was set at 254 nm and 532 nm. The elution was performed using a mobile phase (A) containing 0.1% TFA in water, and a mobile phase (B) containing HPLC grade acetonitrile. A Phenomenex Synergi MAX-RP column (50×4.6 mm; 2.6 μm) was used to perform the chromatography. The HPLC was performed as follows: a gradient ran 3% to 60% mobile phase (B) to 3.60 minutes, a hold at 60% mobile phase (B) for 1 minute, a ramp up to 100% mobile phase (B) to 6 minutes, another hold at 100% mobile phase (B) for 2 minutes, and then back to 3% mobile phase (B) for 1.5 minutes. The column was given 2.5 minutes to re-equilibrate back to the starting conditions. In these conditions, the product elutes at approximately 3.7 minutes. Purity (as area percent) of the product was reported at 254 nm and 532 nm."}, "[2]": {"test": "Stability in DMSO by fluorescent emission intensity", "assay_type": "physicochemical", "details": "for Emission intensity, Ave: average of days 0-110; for Emission intensity: shielded from light, 562 nm, pH 4.0", "experimental": "as §1"}, "[3]": {"test": "Fluorescence intensity loss and recovery when titrated with base and acid", "assay_type": "physicochemical", "details": "titrated from pH 4 to approximately 8 with NaOH and back to approximately 4 with HCl", "experimental": "This example was performed to determine if fluorescence intensity of a pH sensor of the present invention, PBI-4479, which is mostly fluorescent at pH 4, could be recovered when titrated to basic pH, then back to acidic pH. In order to limit disruption of the concentration of the sensor, the experiment was run in a large volume, and the pH was adjusted dropwise with a concentrated base, then with an acid. The product was first dissolved in DMSO to create a concentrated stock, and then a small amount was diluted into 100 mL 10 mM sodium phosphate buffer pH 4.0. Fluorescence was recorded on a HoribaJobinYvon Fluorolog throughout the experiment using an excitation of 528 nm, and emission at 557 nm maintaining a slit width of 2 nm. Excitation and emission maxima were also determined for each aliquot in the event the fluorescence properties of the molecule changed. pH was monitored using a calibrated pH probe (Denver Instruments Model 215 pH meter). 1 mL aliquots were removed when the solution increased to approximately one pH unit, and fluorescence was measured using the parameters stated above. The solution was first titrated dropwise with 2N sodium hydroxide while stirring, until a pH of approximately 8 was attained. The solution was then titrated down with 4N hydrochloric acid until a pH of approximately 4 was attained."}, "wild-type U2-OS cells": {"tested_on": "wild-type U2-OS cells", "test": "Toxicity of HaloTag pH sensors, CELLTITER Glo Cell Viability Assay (Example 9)", "assay_type": "cell-based", "details": "0-10 uM, overnight", "experimental": "U2-OS cells were plated at 10,000 cells/well into wells of 96-well plates and incubated overnight. The next day, 0-10 uM (serially diluted 1:2) PBI-4959, PBI-5004 or PBI-4479 was added to the cells and again incubated overnight. After incubation, the media containing the HaloTag® pH sensors was removed, and 100 ul of fresh media (McCoy's 5A+10% FBS) was added. Cell viability was determined using the CELLTITER Glo Cell Viability Assay according to the manufacturer's protocol (Promega Corporation). Luminescence was read on a GloMAX®-Multi luminometer."}, "[4]": {"test": "Fluorescence excitation and emission spectra of pH sensor agents", "assay_type": "physicochemical", "experimental": "(§2) Experiments were conducted during development of embodiments of the present invention to determine the fluorescence characteristics of exemplary pH sensor agents PBI-4453 and PBI-4479 (SEE FIG. 1). Fluorescence excitation and emission intensities were measured at a range of wavelengths (SEE FIG. 2). […] Fluorescence detection was performed at a range of pH values (SEE FIG. 3)."}, "[5]": {"tested_on": "U2-OS NLS cells (U2-OS cells stably expressing a HaloTag protein with a nuclear localization sequence)", "test": "Permeability, pulse with sensor and chase with Oregon Green (Example 4)", "assay_type": "cell-based", "details": "0-20 uM pulse for 1 hour", "experimental": "Experiments were conducted during development of embodiments of the present invention to determine the permeability and specificity of the pH sensor. U2-OS cells (for specificity) and U2-OS NLS cells (U2-OS cells stably expressing a HaloTag protein with a nuclear localization sequence (NLS); for permeability) were treated with the PBI-4479 sensor. Cells were plated at 40,000 cells/well in 200 ul McCoy's 5A media+10% FBS (“complete media”) onto LTII chamber slides. The cells were then incubated overnight at 37° C., 5% CO2. The cells were then pulsed with PBI-4479 from 0-20 uM for 1 hour. […] Cells were then imaged on an Olympus FV500."}, "[6]": {"test": "pH dependence of fluorescence emission", "assay_type": "physicochemical", "experimental": "as §2"}},
  "data": [
    {"smiles": "O=C(NCCOCCOCCOCCOCCOCCOCCCCCCCl)c1ccc(C(=O)[O-])c(-c2c3ccc(=[N+]4CCN(CCCCS(=O)(=O)O)CC4)cc-3oc3cc(N4CCN(CCCCS(=O)(=O)O)CC4)ccc23)c1", "note": "[PBI-4479]", "values": [
      {"measurement": "HPLC Purity @ 532 nm, Ave", "setting": "[1]; 4° C.", "value": 93.6, "unit": "area percent"},
      {"measurement": "HPLC Purity @ 532 nm, Ave", "setting": "[1]; RT", "value": 92.5, "unit": "area percent"},
      {"measurement": "HPLC Purity @ 532 nm", "setting": "[1]; 4° C., 0 days", "value": 91.8, "unit": "area percent"},
      {"measurement": "HPLC Purity @ 532 nm", "setting": "[1]; 4° C., 1 day", "value": 92.5, "unit": "area percent"},
      {"measurement": "HPLC Purity @ 532 nm", "setting": "[1]; 4° C., 7 days", "value": 93.9, "unit": "area percent"},
      {"measurement": "HPLC Purity @ 532 nm", "setting": "[1]; 4° C., 30 days", "value": 95.7, "unit": "area percent"},
      {"measurement": "HPLC Purity @ 532 nm", "setting": "[1]; 4° C., 110 days", "value": 93.9, "unit": "area percent"},
      {"measurement": "HPLC Purity @ 532 nm", "setting": "[1]; RT, 0 days", "value": 91.8, "unit": "area percent"},
      {"measurement": "HPLC Purity @ 532 nm", "setting": "[1]; RT, 1 day", "value": 91.3, "unit": "area percent"},
      {"measurement": "HPLC Purity @ 532 nm", "setting": "[1]; RT, 7 days", "value": 92.5, "unit": "area percent"},
      {"measurement": "HPLC Purity @ 532 nm", "setting": "[1]; RT, 30 days", "value": 95.1, "unit": "area percent"},
      {"measurement": "HPLC Purity @ 532 nm", "setting": "[1]; RT, 110 days", "value": 91.8, "unit": "area percent"},
      {"measurement": "HPLC Purity @ 532 nm", "setting": "[1]; −20° C., 0 days", "value": 91.1, "unit": "area percent"},
      {"measurement": "HPLC Purity @ 532 nm", "setting": "[1]; −20° C., 1 day", "value": 93.9, "unit": "area percent"},
      {"measurement": "HPLC Purity @ 532 nm", "setting": "[1]; −20° C., 7 days", "value": 92.7, "unit": "area percent"},
      {"measurement": "HPLC Purity @ 532 nm", "setting": "[1]; −20° C., 30 days", "value": 95.8, "unit": "area percent"},
      {"measurement": "HPLC Purity @ 532 nm", "setting": "[1]; −20° C., 110 days", "value": 95.2, "unit": "area percent"},
      {"measurement": "HPLC Purity @ 532 nm, Ave", "setting": "[1]; −20° C.", "value": 93.7, "unit": "area percent"},
      {"measurement": "degradation by fluorescence intensity", "setting": "[2]; 2 mM DMSO solution stored at room temperature", "value": "slight degradation"},
      {"measurement": "Emission intensity, Ave", "setting": "[2]; 2 mM in DMSO, 4° C.", "value": 2096856.0},
      {"measurement": "Emission intensity, Ave", "setting": "[2]; 2 mM in DMSO, RT", "value": 2193684.0},
      {"measurement": "Emission intensity", "setting": "[2]; 2 mM in DMSO, 4° C., 0 days", "value": 2109020},
      {"measurement": "Emission intensity", "setting": "[2]; 2 mM in DMSO, 4° C., 1 day", "value": 2203160},
      {"measurement": "Emission intensity", "setting": "[2]; 2 mM in DMSO, 4° C., 7 days", "value": 2055280},
      {"measurement": "Emission intensity", "setting": "[2]; 2 mM in DMSO, 4° C., 30 days", "value": 2076310},
      {"measurement": "Emission intensity", "setting": "[2]; 2 mM in DMSO, 4° C., 110 days", "value": 2040510},
      {"measurement": "Emission intensity", "setting": "[2]; 2 mM in DMSO, RT, 0 days", "value": 2109020},
      {"measurement": "Emission intensity", "setting": "[2]; 2 mM in DMSO, RT, 1 day", "value": 2641010},
      {"measurement": "Emission intensity", "setting": "[2]; 2 mM in DMSO, RT, 7 days", "value": 2092940},
      {"measurement": "Emission intensity", "setting": "[2]; 2 mM in DMSO, RT, 30 days", "value": 2158320},
      {"measurement": "Emission intensity", "setting": "[2]; 2 mM in DMSO, RT, 110 days", "value": 1967130},
      {"measurement": "Emission intensity", "setting": "[2]; 2 mM in DMSO, −20° C., 0 days", "value": 2109020},
      {"measurement": "Emission intensity", "setting": "[2]; 2 mM in DMSO, −20° C., 1 day", "value": 2336260},
      {"measurement": "Emission intensity", "setting": "[2]; 2 mM in DMSO, −20° C., 7 days", "value": 2006990},
      {"measurement": "Emission intensity", "setting": "[2]; 2 mM in DMSO, −20° C., 30 days", "value": 2191770},
      {"measurement": "Emission intensity", "setting": "[2]; 2 mM in DMSO, −20° C., 110 days", "value": 1926570},
      {"measurement": "time stable", "setting": "[2]; 2 mM in DMSO, stored below room temperature, by emission intensity and HPLC purity", "value": "at least 180 days"},
      {"measurement": "Emission intensity, Ave", "setting": "[2]; 2 mM in DMSO, −20° C.", "value": 2114122.0},
      {"measurement": "reversibility of fluorescence intensity", "setting": "[3]", "value": "fluorescent intensity loss and recovery"},
      {"measurement": "toxicity (cell viability)", "setting": "wild-type U2-OS cells", "value": "non-toxicity"},
      {"measurement": "emission maximum", "setting": "[4]", "value": 562, "unit": "nm"},
      {"measurement": "excitation maximum", "setting": "[4]", "value": 534, "unit": "nm"},
      {"measurement": "cell permeability (labeling of HaloTag-NLS)", "setting": "[5]", "value": "impermeable"},
      {"measurement": "pH at or below which maximal fluorescence intensity is exhibited", "setting": "[6]", "value": "≤ 3"},
      {"measurement": "percent of maximal fluorescence intensity", "setting": "[6]; at pH 8 or higher", "value": "≤ 1", "unit": "%"},
      {"measurement": "pKa", "setting": "[6]; from pH dependence of fluorescence", "value": "~6.1"}
    ]}
  ]
}
